Measured values published in US11096941B2, “Methods of treating circadian rhythm sleep disorders” (Eisai R&D Management Co., Ltd., priority 2016, dated 2021).
Marks after values point to notes of the source that are not given here.

Tests used:
[1] = test system: male senescence accelerated mouse resistant-1 (SAMR1, R1) strain animals; experiment: Sleep/wake EEG/EMG recording and wake circadian phase in SAMR1 mice after oral administration; format: in vivo
Source text: (§1) A compound of Formula (I) was finely crushed and suspended in vehicle, a mixture of 0.5% w/v methylcellulose 400 cP in distilled water. Experimental data were collected on male senescence accelerated mouse prone-8 (“SAMP8” or “P8”) strain animals and male senescence accelerated mouse resistant-1 (“SAMR1” or “R1”) strain animals at the age of 21 weeks. P8 mice are known to show accelerated symptoms of aging and also pathological and behavioral symptoms of Alzheimer's disease, while R1 mice are used to represent a normal aging process and are also used as a control strain for P8 mice. See, e.g., Miyamoto, et al., Exp. Geron., 1997, 32, 139-48; Morley et al., Curr. Pharm. Des., 2012, 18, 1123-30.
(§2) Electroencephalogram (“EEG”) and electromyogram (“EMG”) electrodes were implanted on each mouse at 17-18 weeks of age, and the mice were then allowed to recover for at least 18 days in individual recording cages, where they could freely move, under a 12-hour light/12-hour dark cycle. Amplified EEG and EMG signals were digitally recorded for 3 days, separated into individual 24-hour recordings, which were initiated at each lights-on event. During the first 30 minutes of the light cycle (ZT 0-0.5), each mouse received an oral administration of either vehicle or 3 mg/kg of the compound of Formula (I) in vehicle or 30 mg/kg of the compound of Formula (I) in vehicle, after which the sleep/wake behavior of mice was recorded until the next lights on event. Each mouse received every treatment in a cross-over fashion with one treatment per day in the following order: vehicle (10 mL/kg bodyweight), 3 mg/kg, and then 30 mg/kg. Some mice started with vehicle on day 1, some mice started with 3 mg/kg compound of Formula (I) on day 1, and some mice started with 30 mg/kg compound of Formula (I) on day 1.
(§3) EEG frequency and EMG activity signal data were analyzed using software from Kissei Comtec Co., Ltd. to characterize every 10 second epoch as either rapid eye movement (REM) sleep, non-REM sleep, or wakefulness. Then, accumulated wakefulness, non-REM sleep, and REM sleep times over the light cycle (11.5 hours) and the dark cycle (12 hours) were calculated. Additionally, latencies to sleep and REM sleep were calculated as the first appearance of 6 or more epochs of uninterrupted sleep or one or more epochs of REM sleep after the dosing event, respectively. The circadian rhythm parameter phase was determined as the inflection point of a cosine curve fit to the wakefulness distribution in 30 minute bins across the day for every individual mouse using JTK_CYCLE software. Hughes, et al., J. Biol. Rhythms, 2010, 25, 372-80.
(§4) The differences between P8 mice and R1 mice (control mice) were statistically analyzed by comparing sleep/wake behavior and circadian rhythm of the vehicle-treated animals of each strain, while the effect of administration of a compound of Formula (I) on sleep/wake behavior and circadian rhythm was statistically analyzed for each strain as the difference between sleep/wake behavior and circadian rhythm on the vehicle-administration day and sleep/wake behavior and circadian rhythm on a drug-administration day. Statistical analysis of wakefulness time, non-REM sleep time, REM sleep time and latency, and sleep latency was performed with a linear mixed model which specified animal as random effect, and day, strain, treatment and the interaction between strain and treatment as fixed effects with Kenward-Roger as denominator degrees of freedom using SAS software. For estimation of wakefulness phase and its covariance, a linear mixed model was used which assumed heterogeneous variance of strain and treatment combination with Kenward-Roger as denominator and degrees of freedom using SAS software.

[2] = test system: male senescence accelerated mouse prone-8 (SAMP8, P8) strain animals; experiment: Sleep/wake EEG/EMG recording and wake circadian phase in SAMP8 mice after oral administration; format: in vivo; settings: for Wake circadian phase, Phase (ZT): least square mean ± standard error
Source text: as §1, §2, §3, §4

[3] = 3 and 30 mg/kg oral during ZT 0-0.5, vs vehicle
[4] = 3 and 30 mg/kg oral, vs vehicle (FIG. 2)
[5] = P8 mice, 3 mg/kg oral at ZT 0-0.5
[6] = P8 mice, 30 mg/kg oral at ZT 0-0.5
[7] = P8 mice, 3 and 30 mg/kg oral during ZT 0-0.5, vs vehicle
[8] = P8 mice, 3 and 30 mg/kg oral, vs vehicle (FIG. 2)

Which “Covariance of Phase” value ([1]; 3 mg/kg oral at ZT 0-0.5) does the source give for `Cc1ncc(OC[C@@]2(c3cccc(F)c3)C[C@H]2C(=O)Nc2ccc(F)cn2)c(C)n1` [compound of Formula (I), (1R,2S)-2-(((2,4-dimethylpyrimidin-5-yl)oxy)methyl)-2-(3-fluorophenyl)-N-(5-fluoropyridin-2-yl)cyclopropanecarboxamide] here?
The value was 5.18.

What about the “Wake circadian phase, Phase (ZT)” value ([1]; 3 mg/kg oral at ZT 0-0.5, least square mean ± standard error) of the same molecule?
Its value is 15.65 ± 0.87 ZT.

What about the “vigilance states (wakefulness, non-REM sleep, REM sleep) during dark time” value ([1]; 3 mg/kg oral in previous light time, ZT 12-24) of the same molecule?
The value was “no effect on each of the vigilance states”.

What about the “Covariance of Phase” value ([1]; 30 mg/kg oral at ZT 0-0.5) of the same molecule?
The value was 0.05.

And the “Wake circadian phase, Phase (ZT)” value ([1]; 30 mg/kg oral at ZT 0-0.5, least square mean ± standard error)?
Its value is 17.02 ± 0.35^a ZT.

And the “wakefulness time during dark time” value ([1]; 30 mg/kg oral in previous light time, ZT 12-24 (FIG. 1A))?
The value was “decrease of wakefulness”.

And the “non-REM sleep time during dark time” value ([1]; 30 mg/kg oral in previous light time, ZT 12-24 (FIG. 1B))?
The value was “increase of non-REM sleep”.

What about the “wakefulness time during light time” value ([1]; 3 and 30 mg/kg oral at beginning of light time, ZT 0.5-12, vs vehicle (FIG. 1A)) of the same molecule?
The value was “reduces, in a dose-dependent manner, wakefulness”.

And the “phase covariance and phase variability (in words)” value [1, 3]?
Its value is “reduction in phase covariance and phase variability”.

And the “wake phase shift (in words)” value [1, 3]?
The value was “dose-dependent significant delay (right-shift) of the wake phase”.

And the “non-REM sleep time during light time” value ([1]; 3 and 30 mg/kg oral, ZT 0.5-12, vs vehicle (FIG. 1B))?
Its value is “increases non-REM sleep”.

And the “REM sleep time during light time” value ([1]; 3 and 30 mg/kg oral, ZT 0.5-12, vs vehicle (FIG. 1C))?
Its value is “dose-dependent increase in the amount of REM sleep”.

And the REM sleep latency [1, 4]?
The REM sleep latency was “dose-dependent reduction of sleep and REM sleep latencies”.

And the sleep latency [1, 4]?
Its sleep latency is “dose-dependent reduction of sleep and REM sleep latencies”.

And the “Covariance of Phase” value [2, 5]?
Its value is 1.32.

And the “Wake circadian phase, Phase (ZT)” value [2, 5]?
The value was 14.00 ± 0.56 ZT.

What about the “Covariance of Phase” value [2, 6] of the same molecule?
Its value is 2.11.

What about the “Wake circadian phase, Phase (ZT)” value [2, 6] of the same molecule?
Its value is 15.41 ± 0.64^b ZT.

And the “wakefulness time during light time” value ([2]; P8 mice, 3 and 30 mg/kg oral at beginning of light time, ZT 0.5-12, vs vehicle (FIG. 1A))?
Its value is “reduces, in a dose-dependent manner, wakefulness”.

And the “phase covariance and phase variability (in words)” value [2, 7]?
The value was “reduction in phase covariance and phase variability”.

What about the “wake phase shift (in words)” value [2, 7] of the same molecule?
Its value is “dose-dependent and significant delay (right-shift) of the wake phase”.

And the “wakefulness time during dark time” value ([2]; P8 mice, 3 and 30 mg/kg oral in previous light time, ZT 12-24 (FIG. 1A))?
Its value is “dose-dependent increase in wakefulness”.

And the “non-REM sleep time during dark time” value ([2]; P8 mice, 3 and 30 mg/kg oral in previous light time, ZT 12-24 (FIG. 1B))?
Its value is “decreases in non-REM sleep and REM sleep”.

And the “REM sleep time during dark time” value ([2]; P8 mice, 3 and 30 mg/kg oral in previous light time, ZT 12-24 (FIG. 1C))?
The value was “decreases in non-REM sleep and REM sleep”.

And the “non-REM sleep time during light time” value ([2]; P8 mice, 3 and 30 mg/kg oral, ZT 0.5-12, vs vehicle (FIG. 1B))?
The value was “increases non-REM sleep”.

What about the “REM sleep time during light time” value ([2]; P8 mice, 3 and 30 mg/kg oral, ZT 0.5-12, vs vehicle (FIG. 1C)) of the same molecule?
Its value is “dose-dependent increase in the amount of REM sleep”.

What about the REM sleep latency [2, 8] of the same molecule?
Its REM sleep latency is “dose-dependent reduction of sleep and REM sleep latencies”.

What about the sleep latency [2, 8] of the same molecule?
The sleep latency was “dose-dependent reduction of sleep and REM sleep latencies”.

And the “wake phase relative to vehicle-treated R1 mice” value ([2]; treated P8 mice, administration during ZT 0-0.5)?
Its value is “correction to the level of vehicle-treated R1 mice”.

What about the “amounts of wake and non-REM sleep in light time relative to vehicle-treated R1 mice” value ([2]; treated P8 mice, light time) of the same molecule?
The value was “normalized to the level of vehicle-treated R1 mice”.
